According to PubChem BioAssay (NCI):
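The compound was tested at five concentrations on cells cultured in 96-well plates, with a 48-hour exposure period. GI50: concentration for 50% inhibition of growth. TGI denotes the concentration required for complete inhibition of growth.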

Legend:
Assay in all cases: NCI anticancer screen, dose series, 48 h
COLO 205 colon = system: COLO 205 colon
UO-31 renal = system: UO-31 renal
MALME-3M melanoma = system: MALME-3M melanoma
HCC-2998 colon = system: HCC-2998 colon
MCF7 breast = system: MCF7 breast
MOLT-4 leukemia = system: MOLT-4 leukemia
RXF 393 renal = system: RXF 393 renal
NCI/ADR-RES ovarian = system: NCI/ADR-RES ovarian
OVCAR-8 ovarian = system: OVCAR-8 ovarian
SF-295 CNS = system: SF-295 CNS
OVCAR-3 ovarian = system: OVCAR-3 ovarian
MDA-MB-435 = system: MDA-MB-435
SK-MEL-28 melanoma = system: SK-MEL-28 melanoma
A549 NSCLC = system: A549 NSCLC
K-562 leukemia = system: K-562 leukemia
SNB-19 CNS = system: SNB-19 CNS
SW-620 colon = system: SW-620 colon
TK-10 renal = system: TK-10 renal
IGROV1 ovarian = system: IGROV1 ovarian
T-47D breast = system: T-47D breast
CAKI-1 renal = system: CAKI-1 renal
SNB-75 CNS = system: SNB-75 CNS
SK-MEL-5 melanoma = system: SK-MEL-5 melanoma
OVCAR-5 ovarian = system: OVCAR-5 ovarian
BT-549 breast = system: BT-549 breast
SN12C renal = system: SN12C renal
RPMI-8226 leukemia = system: RPMI-8226 leukemia
HOP-62 NSCLC = system: HOP-62 NSCLC
NCI-H522 lung = system: NCI-H522 lung
ACHN renal = system: ACHN renal
CCRF-CEM leukemia = system: CCRF-CEM leukemia
NCI-H23 lung = system: NCI-H23 lung
HS 578T breast = system: HS 578T breast
KM12 colon = system: KM12 colon
HT29 colon = system: HT29 colon
EKVX NSCLC = system: EKVX NSCLC
UACC-257 melanoma = system: UACC-257 melanoma
786-0 renal = system: 786-0 renal
SK-OV-3 ovarian = system: SK-OV-3 ovarian
SK-MEL-2 melanoma = system: SK-MEL-2 melanoma
HOP-92 NSCLC = system: HOP-92 NSCLC
UACC-62 melanoma = system: UACC-62 melanoma
HL-60(TB) leukemia = system: HL-60(TB) leukemia
M14 melanoma = system: M14 melanoma
NCI-H226 lung = system: NCI-H226 lung
SR leukemia = system: SR leukemia
SF-539 CNS = system: SF-539 CNS
SF-268 CNS = system: SF-268 CNS
MDA-MB-231 breast = system: MDA-MB-231 breast
OVCAR-4 ovarian = system: OVCAR-4 ovarian
A498 renal = system: A498 renal
DU-145 prostate = system: DU-145 prostate
PC-3 prostate = system: PC-3 prostate
NCI-H460 lung = system: NCI-H460 lung
U251 CNS = system: U251 CNS
HCT-116 colon = system: HCT-116 colon
LOX IMVI melanoma = system: LOX IMVI melanoma
HCT-15 colon = system: HCT-15 colon

In the case of `CN1CCN(Cc2ccc(NC(=O)c3cncc(C#Cc4cnc5ccc(OCC6COC6)nn45)c3)cc2C(F)(F)F)CC1`, the GI50 (COLO 205 colon) is reported as 103 nM, the TGI (COLO 205 colon) is reported as 222 nM and the GI50 (UO-31 renal) is reported as 167 nM. It also gave a TGI (UO-31 renal) of 558 nM, a GI50 (MALME-3M melanoma) of 89.5 nM and a TGI (MALME-3M melanoma) of 314 nM. It also gave a GI50 (HCC-2998 colon) of 310 nM, a TGI (HCC-2998 colon) of 1110 nM and a GI50 (MCF7 breast) of 96 nM. It also gave a TGI (MCF7 breast) of 528 nM, a GI50 (MOLT-4 leukemia) of 129 nM and a TGI (MOLT-4 leukemia) of 941 nM. The GI50 (RXF 393 renal) was 159 nM, the TGI (RXF 393 renal) was 457 nM and the GI50 (NCI/ADR-RES ovarian) was 195 nM. For the same molecule, the TGI (NCI/ADR-RES ovarian) was 1260 nM, the GI50 (OVCAR-8 ovarian) was 163 nM and the TGI (OVCAR-8 ovarian) was 600 nM. It also gave a GI50 (SF-295 CNS) of 443 nM, a TGI (SF-295 CNS) of 1120 nM and a GI50 (OVCAR-3 ovarian) of 214 nM. The TGI (OVCAR-3 ovarian) was 705 nM, the GI50 (MDA-MB-435) was 144 nM and the TGI (MDA-MB-435) was 615 nM. The GI50 (SK-MEL-28 melanoma) was 218 nM, the TGI (SK-MEL-28 melanoma) was 809 nM and the GI50 (A549 NSCLC) was 174 nM. For the same molecule, the TGI (A549 NSCLC) was 655 nM, the GI50 (K-562 leukemia) was 5 nM and the TGI (K-562 leukemia) was 5120 nM. It also gave a GI50 (SNB-19 CNS) of 363 nM, a TGI (SNB-19 CNS) of 2050 nM and a GI50 (SW-620 colon) of 160 nM. It also gave a TGI (SW-620 colon) of 599 nM, a GI50 (TK-10 renal) of 187 nM and a TGI (TK-10 renal) of 570 nM. For the same molecule, the GI50 (IGROV1 ovarian) was 142 nM, the TGI (IGROV1 ovarian) was 583 nM and the GI50 (T-47D breast) was 355 nM. The TGI (T-47D breast) was 1430 nM, the GI50 (CAKI-1 renal) was 117 nM and the TGI (CAKI-1 renal) was 432 nM. For the same molecule, the GI50 (SNB-75 CNS) was 182 nM, the TGI (SNB-75 CNS) was 541 nM and the GI50 (SK-MEL-5 melanoma) was 552 nM. It also gave a TGI (SK-MEL-5 melanoma) of 1170 nM, a GI50 (OVCAR-5 ovarian) of 222 nM and a TGI (OVCAR-5 ovarian) of 812 nM. The GI50 (BT-549 breast) was 538 nM, the TGI (BT-549 breast) was 1180 nM and the GI50 (SN12C renal) was 141 nM. It also gave a TGI (SN12C renal) of 609 nM, a GI50 (RPMI-8226 leukemia) of 269 nM and a TGI (RPMI-8226 leukemia) of 1260 nM. It also gave a GI50 (HOP-62 NSCLC) of 175 nM, a TGI (HOP-62 NSCLC) of 589 nM and a GI50 (NCI-H522 lung) of 97.7 nM. For the same molecule, the TGI (NCI-H522 lung) was 226 nM, the GI50 (ACHN renal) was 167 nM and the TGI (ACHN renal) was 605 nM. For the same molecule, the GI50 (CCRF-CEM leukemia) was 184 nM, the TGI (CCRF-CEM leukemia) was 3880 nM and the GI50 (NCI-H23 lung) was 151 nM. The TGI (NCI-H23 lung) was 693 nM, the GI50 (HS 578T breast) was 235 nM and the TGI (HS 578T breast) was 1320 nM. For the same molecule, the GI50 (KM12 colon) was 5 nM, the TGI (KM12 colon) was 451 nM and the GI50 (HT29 colon) was 166 nM. For the same molecule, the TGI (HT29 colon) was 687 nM, the GI50 (EKVX NSCLC) was 273 nM and the TGI (EKVX NSCLC) was 954 nM. The GI50 (UACC-257 melanoma) was 384 nM, the TGI (UACC-257 melanoma) was 1070 nM and the GI50 (786-0 renal) was 272 nM. For the same molecule, the TGI (786-0 renal) was 847 nM, the GI50 (SK-OV-3 ovarian) was 244 nM and the TGI (SK-OV-3 ovarian) was 927 nM. The GI50 (SK-MEL-2 melanoma) was 103 nM, the TGI (SK-MEL-2 melanoma) was 237 nM and the GI50 (HOP-92 NSCLC) was 28 nM. For the same molecule, the TGI (HOP-92 NSCLC) was 166 nM, the GI50 (UACC-62 melanoma) was 155 nM and the TGI (UACC-62 melanoma) was 717 nM. It also gave a GI50 (HL-60(TB) leukemia) of 121 nM, a TGI (HL-60(TB) leukemia) of 412 nM and a GI50 (M14 melanoma) of 88.9 nM. The TGI (M14 melanoma) was 205 nM, the GI50 (NCI-H226 lung) was 50.4 nM and the TGI (NCI-H226 lung) was 709 nM. The GI50 (SR leukemia) was 147 nM, the TGI (SR leukemia) was 517 nM and the GI50 (SF-539 CNS) was 165 nM. For the same molecule, the TGI (SF-539 CNS) was 795 nM, the GI50 (SF-268 CNS) was 189 nM and the TGI (SF-268 CNS) was 629 nM. The GI50 (MDA-MB-231 breast) was 95 nM, the TGI (MDA-MB-231 breast) was 445 nM and the GI50 (OVCAR-4 ovarian) was 193 nM. The TGI (OVCAR-4 ovarian) was 979 nM, the GI50 (A498 renal) was 483 nM and the TGI (A498 renal) was 1110 nM. For the same molecule, the GI50 (DU-145 prostate) was 177 nM, the TGI (DU-145 prostate) was 573 nM and the GI50 (PC-3 prostate) was 244 nM. It also gave a TGI (PC-3 prostate) of 1450 nM, a GI50 (NCI-H460 lung) of 189 nM and a TGI (NCI-H460 lung) of 676 nM. It also gave a GI50 (U251 CNS) of 251 nM, a TGI (U251 CNS) of 935 nM and a GI50 (HCT-116 colon) of 91.1 nM. The TGI (HCT-116 colon) was 306 nM, the GI50 (LOX IMVI melanoma) was 165 nM and the TGI (LOX IMVI melanoma) was 620 nM. The GI50 (HCT-15 colon) was 153 nM and the TGI (HCT-15 colon) was 568 nM.
